In patent US20110154529A1, “INDUCED CHROMOSOME DOUBLING IN PLANTS” (DOW AGROSCIENCES LLC, priority 2009, published 2011):
Where two headings read alike, the source gives them in different places.

Experiments:
[1] = test system: haploid germinated maize seedlings
From the text: An exemplary cycloalkene, 1,2,3-Trimethoxy-4-((1S,6R)-6-nitro-cyclohex-3-enyl)-benzene, designated as compound 1 was used to determine double haploid efficiency, doubling rate by a coleoptile tip cutting, seedling soaking method. […] Data provided in Tables 1, 2 and 3 were generated using haploid seeds obtained through cross pollination of a maize line of interest with an inducer maize line.
The resulting maize seeds were sorted based on marker gene color.
Coleoptile tips in maize seedlings were cut and the seedlings were soaked in various chromosome doubling agents as shown in Table 1. Haploid maize seeds were germinated and the coleoptile tips were excised (1-2 mm). Seedlings that survived were transplanted and grown until tassels and silk formed. Plants that produced tassels and silk were self-pollinated. Seeds produced form the self-pollination were visually assessed for the marker to identify them as double haploid (dihaploid).

[2] = test system: germinated haploid maize seedlings in soil; test: Chromosome doubling by foliar spray treatment at V1-V3 stage; assay type: in vivo
Procedure: Haploid maize seeds were planted in Sun Gro MetroMix® 306 planting mixture, which typically has a pH of 6.0 to 6.8 and an organic matter content of about 30 percent, in 72-well, plastic propagation flats (Dillen Products; Middlefield Ohio). When required to ensure good germination and healthy plants, a fungicide treatment and/or other chemical or physical treatment was applied. The plants were grown in a greenhouse with an approximate 15 hour photoperiod which was maintained at about 23-29° C. during the day and 22-28° C. during the night until they reached the V1-V3 growth stage. Nutrients and water were added on a regular basis and supplemental lighting was provided with overhead metal halide 1000-Watt lamps as necessary.
A weighed amount of compound 1, determined by the rate to be tested, was dissolved in 1.2 mL of dimethyl sulfoxide (DMSO) to obtain concentrated stock solutions. […] The concentrated stock solutions obtained were diluted with 10.8 mL of an aqueous mixture containing 1.25% v/v (volume/volume) Agri-dex Crop Oil Concentrate. Compound requirements are based upon a 12 mL application volume at a rate of 187 L/ha. Formulated compounds were applied to the plant material with an overhead Mandel track sprayer equipped with a 8002E nozzle calibrated to deliver 187 L/ha over an application area of 0.503 square meters at a spray height of 18 inches (43 cm) above the average plant canopy height. Control plants were sprayed in the same manner with the solvent blank.
The treated plants and control plants were placed in a greenhouse as described above and watered by sub-irrigation to prevent wash-off of the test compounds. Approximately 14 days after treatment, the treated plants were transplanted to individual pots containing Sun Gro MetroMix® 306. Plants that produced tassels and silk were then self-pollinated to obtain dihaploid seed.
Table 3 illustrates the results of doubling rate after spray treatment with the chemicals of interest. […] The spray treated plant tassels and silks were synchronized well and the plants shed more pollen.

rats = test: Dermal toxicity on rats; assay type: in vivo, rat; settings: rats at 200 mg/kg
rabbit = test: Eye irritation; assay type: in vivo; settings: dose of about 100 mg/animal
haploid maize seedlings = test: Chromosome doubling by seedling soaking, plants transplanted into the field; assay type: in vivo
Procedure: The procedure listed in example 1 was utilized to treat maize seedlings that were subsequently transplanted into the field. Seedlings that survived the transplanting were grown to maturity. Plants that produced tassels and silk were self-pollinated. […] For the cycloalkene treatment, 25 μM and 100 μM concentrations of compound 1 was used.

[3] = Acute mammalian toxicity LD50 (rat); settings: in vivo
rat = settings: cited from earlier work
[4] = seedling soak, rate 5 μM, TP = transplanted
[5] = seedling soak, rate 25 μM, TP = transplanted
[6] = seedling soak, rate 125 μM, TP = transplanted
[7] = seedling soak, rate cell empty in table, colchicine at 0.06% w/v

C#CC(C)(C)NC(=O)c1cc(Cl)cc(Cl)c1 [Pronamide, pronamide]
% DR (doubling rate: No. plants with pollen and silk/No. of plants left * 100) ([1]; seedling soak, rate 5 μM): 44.5% | No. plants alive ([1]; seedling soak, rate 5 μM): 41 | No. plants dead ([1]; seedling soak, rate 5 μM): 23 | No. plants with pollen & silks ([1]; seedling soak, rate 5 μM): 12 | No. plants dead after TP [1, 4]: 3 | No. plants alive ([1]; seedling soak, rate 25 μM): 13 | No. plants dead ([1]; seedling soak, rate 25 μM): 51 | No. plants with pollen & silks ([1]; seedling soak, rate 25 μM): 2 | No. plants dead after TP [1, 5]: 1 | No. plants alive ([1]; seedling soak, rate 125 μM): 2 | No. plants dead ([1]; seedling soak, rate 125 μM): 62 | No. plants dead after TP [1, 6]: 0 | # plants dead after treatment ([2]; spray, rate 35 g ai/ha): 0 | # plants w/ pollen and silk ([2]; spray, rate 35 g ai/ha): 5 | % DR (doubling rate) ([2]; spray, rate 35 g ai/ha): 27.8% | # plants dead after treatment ([2]; spray, rate 140 g ai/ha): 0 | # plants w/ pollen and silk ([2]; spray, rate 140 g ai/ha): 3 | % DR (doubling rate) ([2]; spray, rate 140 g ai/ha): 16.7%

COc1ccc([C@@H]2CC=CC[C@H]2[N+](=O)[O-])c(OC)c1OC [Compound 1, 1,2,3-Trimethoxy-4-((1S,6R)-6-nitro-cyclohex-3-enyl)-benzene]
dermal toxicity (rats): No dermal toxicity was observed | No. plants alive ([1]; maize, in vivo, 5 μM): 56 | No. plants dead ([1]; maize, in vivo, 5 μM): 10 | No. plants dead after TP ([1]; maize, in vivo, 5 μM): 2 | No. plants alive ([1]; maize, in vivo, 25 μM): 46 | No. plants dead ([1]; maize, in vivo, 25 μM): 20 | No. plants dead after TP ([1]; maize, in vivo, 25 μM): 2 | No. plants alive ([1]; maize, in vivo, 125 μM): 29 | No. plants dead ([1]; maize, in vivo, 125 μM): 34 | No. plants dead after TP ([1]; maize, in vivo, 125 μM): 2 | mortality rate ([1]; seedling soak, 5 μM (10/66*100)): 15.1% | mortality rate ([1]; seedling soak, 25 μM): 30.3% | % DR (doubling rate: No. plants with pollen and silk/No. of plants left * 100) ([1]; seedling soak, rate 5 μM): 53.3% | No. plants with pollen & silks ([1]; seedling soak, rate 5 μM): 24 | % DR (doubling rate: No. plants with pollen and silk/No. of plants left * 100) ([1]; seedling soak, rate 5 μM, listed as compound 1): about 53% | % DR (doubling rate: No. plants with pollen and silk/No. of plants left * 100) ([1]; seedling soak, rate 25 μM): 62.5% | No. plants with pollen & silks ([1]; seedling soak, rate 25 μM): 20 | % DR (doubling rate: No. plants with pollen and silk/No. of plants left * 100) ([1]; seedling soak, rate 125 μM): 76.5% | No. plants with pollen & silks ([1]; seedling soak, rate 125 μM): 13 | Eye irritation: time to resolution of corneal and iridal effects (rabbit): ≤ 48 h | Eye irritation: animals with corneal and iridal effects (rabbit; at 24 hours): 1 of 3 animals showed corneal and iridal effects | # plants dead after treatment ([2]; maize, in vivo): 0 | # plants w/ pollen and silk ([2]; spray, rate 70 g ai/ha): 6 | % DR (doubling rate) ([2]; spray, rate 70 g ai/ha): 31.2% | # plants w/ pollen and silk ([2]; spray, rate 280 g ai/ha): 12 | % DR (doubling rate) ([2]; spray, rate 280 g ai/ha): 46.2% | % DH pollination success (haploid maize seedlings; 25 μM): 90% | % haploid maize plants pollinated (doubling rate) (haploid maize seedlings; 25 μM): 67.79% | plants that had doubled haploid ears (haploid maize seedlings; 25 μM, out of 40 pollinated maize haploid plants): 36 | % DH pollination success (haploid maize seedlings; 100 μM): 62.5% | % haploid maize plants pollinated (doubling rate) (haploid maize seedlings; 100 μM): 51.06% | plants that had doubled haploid ears (haploid maize seedlings; 100 μM, out of 24 pollinated haploid maize plants): 15 | LD50 [3]: ≥ 500 mg/kg

CC(C)OC(=O)Nc1cccc(Cl)c1 [Chlorpropham, chlorpropham]
% DR (doubling rate: No. plants with pollen and silk/No. of plants left * 100) ([1]; seedling soak, rate 5 μM): 45.5% | No. plants alive ([1]; seedling soak, rate 5 μM): 16 | No. plants dead ([1]; seedling soak, rate 5 μM): 48 | No. plants with pollen & silks ([1]; seedling soak, rate 5 μM): 5 | No. plants dead after TP [1, 4]: 0 | No. plants alive ([1]; seedling soak, rate 25 μM): 1 | No. plants dead ([1]; seedling soak, rate 25 μM): 63 | No. plants dead after TP [1, 5]: 0 | No. plants alive ([1]; seedling soak, rate 125 μM): 0 | No. plants dead ([1]; seedling soak, rate 125 μM): 64 | No. plants dead after TP [1, 6]: 0 | # plants dead after treatment ([2]; spray, rate 70 g ai/ha): 0 | # plants w/ pollen and silk ([2]; spray, rate 70 g ai/ha): 9 | % DR (doubling rate) ([2]; spray, rate 70 g ai/ha): 40.9% | # plants dead after treatment ([2]; spray, rate 280 g ai/ha): 1 | # plants w/ pollen and silk ([2]; spray, rate 280 g ai/ha): 18 | % DR (doubling rate) ([2]; spray, rate 280 g ai/ha): 58.1%

COc1cc2c(c(OC)c1OC)-c1ccc(OC)c(=O)cc1[C@@H](NC(C)=O)CC2 [Colchicine, colchicine]
oral LD50 (rat) (rat): 5.89 mg/kg | mortality rate ([1]; seedling soak, colchicine treatment at 0.06% w/v): 41.5% | % DR (doubling rate: No. plants with pollen and silk/No. of plants left * 100) [1, 7]: 53.3% | No. plants alive [1, 7]: 38 | No. plants dead [1, 7]: 27 | No. plants dead after TP [1, 7]: 0 | No. plants with pollen & silks [1, 7]: 16 | % haploid maize plants pollinated (doubling rate) (haploid maize seedlings; 0.06% colchicine): 55.68% | plants that had doubled haploid ears (haploid maize seedlings; 0.06% w/v colchicine, of about 49 haploid plants pollinated): about 38
